Test system: Sprague-Dawley (SD) rats
Experiment: oral glucose tolerance test (OGTT) in SD rats, reduction rate in blood glucose AUC relative to vehicle
Type: in vivo, rat
Conditions: male SD rats
Experimental: In this experiment, the compound represented by Formula 1 was prepared by the method described in Example 5 of Korean Patent Laid-Open Publication No. 10-2018-0069718 and dapagliflozin (HY-10450, MedChemExpress Co., Ltd.) was used. As a control group, a vehicle (0.5% carboxymethyl cellulose (CMC)) was used.
After at least 1 week of acclimatization of 8 to 10 week-old male Sprague-Dawley (SD) rats, an oral glucose tolerance test (OGTT) was performed using healthy rats.
After 16 hours of fasting, the rats were randomly divided into groups each having 5 rats similar in body weight and blood glucose level, followed by administration of the vehicle (0.5% carboxymethyl cellulose (CMC)), 0.3 mg/kg of the compound represented by Formula 1 alone, 0.1 mg/kg of dapagliflozin alone, or a combination of 0.3 mg/kg of the compound represented by Formula 1 and 0.1 mg/kg of dapagliflozin. One hour after administration of each of the drugs, glucose (2 g/kg) was intraperitoneally injected at a dose of 10 ml/kg. Blood glucose level was measured 60 minutes before glucose injection and 0, 15, 30, 60, and 120 minutes after glucose injection through puncture of the caudal vein using a blood glucose meter (Gluco DR. Almedicus. Co. Ltd.). Results were expressed by a reduction rate (%) in area under the blood glucose curve (AUC) relative to administration of the vehicle.
Results of measuring AUC from 0 to 60 min and from 0 to 120 min after glucose injection according to the above method are shown in Table 1 and FIG. 1.
An experiment was conducted in the same manner as in Example 1 except that 0.3 mg/kg of empagliflozin (HY-15409, MedChemExpress Co., Ltd.) was used instead of 0.1 mg/kg of dapagliflozin.

[1] = Example 1, 0.3 mg/kg alone, 1 h before glucose 2 g/kg
[2] = Example 2, Formula 1 0.3 mg/kg alone
[3] = Example 1, 0.1 mg/kg alone, 1 h before glucose 2 g/kg
[4] = Example 2, empagliflozin 0.3 mg/kg alone

**Q.** Which “reduction rate (%) in area under the blood glucose curve AUC (0-60 min) relative to vehicle” value [1] does the source give for `CC#C[C@@H](CC(=O)O)c1ccc(O[C@@H]2CCc3c(-c4ccc(O[C@@H]5CCOC5)nc4)ccc(F)c32)cc1` [Compound of Formula 1, (S)-3-(4-(((R)-7-fluoro-4-(6-(((R)-tetrahydrofuran-3-yl)oxy)pyridin-3-yl)-2,3-dihydro-1H-inden-1-yl)oxy)phenyl)hex-4-ynoic acid] here?
**A.** 17.9%

**Q.** What about the “reduction rate (%) in area under the blood glucose curve AUC (0-120 min) relative to vehicle” value [1] of the same compound?
**A.** 18.1%

**Q.** What about the “reduction rate (%) in area under the blood glucose curve AUC (0-60 min) relative to vehicle” value [2] of the same compound?
**A.** 21.3%

**Q.** And the “reduction rate (%) in area under the blood glucose curve AUC (0-120 min) relative to vehicle” value [2]?
**A.** 21.6%

**Q.** With `CCOc1ccc(Cc2cc([C@@H]3O[C@H](CO)[C@@H](O)[C@H](O)[C@H]3O)ccc2Cl)cc1` [Dapagliflozin, dapagliflozin] as the compound, how does the “reduction rate (%) in area under the blood glucose curve AUC (0-60 min) relative to vehicle” value [3] read?
**A.** 9.8%

**Q.** And the “reduction rate (%) in area under the blood glucose curve AUC (0-120 min) relative to vehicle” value [3]?
**A.** 6.7%

**Q.** `OC[C@H]1O[C@@H](c2ccc(Cl)c(Cc3ccc(O[C@H]4CCOC4)cc3)c2)[C@H](O)[C@@H](O)[C@@H]1O` [Empagliflozin, empagliflozin] was tested. Which “reduction rate (%) in area under the blood glucose curve AUC (0-60 min) relative to vehicle” value [4] did it give?
**A.** 5.5%

**Q.** What about the “reduction rate (%) in area under the blood glucose curve AUC (0-120 min) relative to vehicle” value [4] of the same compound?
**A.** 4.0%

Source: US20240366579A1, “PHARMACEUTICAL COMPOSITION COMPRISING GPR40 AGONIST AND SGLT-2 INHIBITOR” (ILDONG PHARMACEUTICAL CO., LTD., priority 2021, published 2024)
